Experimental data as given in EP4818330A1, “PHARMACEUTICAL PREPARATION FOR DIAGNOSING AND TREATING ALZHEIMER'S DISEASE” (Shanghai East Hospital Tongji University, priority 2023, dated 2025).
Where “and” joins values, the source holds several entries; their conditions need not be identical. Equal entries are not always repeated. Where two headings read alike, the source gives them in different places.

Experiments:
[1] = Blood drug concentration in mice after single intraperitoneal administration; assay type: in vivo, Balb/c strain mice
Procedure: Compound preparation: A compound of Formula I was commercially available, which was dissolved and diluted with a solution comprising 10% DMSO+90% (20% HP-β-CD).
Research method: first, Balb/c strain mice were administered with a single intraperitoneal injection at a concentration of 2.5 mg/kg, and the content of the compound in serum was detected at 0.25, 0.5, 1, 2, 4, 6, 8 and 24 h after injection; second, brain tissues of mice at 0.5, 4 and 24 h after injection were collected to detect the compound content, so as to evaluate the blood-brain barrier penetration rate.

293T cell line = assay: CCK8 cell viability (toxicity) assay in 293T cell line; assay type: cell-based; conditions: 293T, 24 h, CCK8, three replicate wells
From the text: (§1) The CCK8 cell viability assay (CCK8) was adopted. Its principle is mainly based on the reduction reaction of WST-8 (chemical name: 2-(2-methoxy-4-nitrophenyl)-3-(4-nitrophenyl)-5-(2,4-disulfophenyl)-2H-tetrazolium monosodium salt). In the presence of living cells, WST-8 can be reduced by dehydrogenases in mitochondria to generate a highly water-soluble orange-yellow formazan product. The color intensity is directly proportional to the number of living cells, wherein the quantity of living cells can be indirectly reflected by measuring the absorbance of formazan products (typically at a wavelength of 450 nm). The CCK-8 assay is widely used in cell proliferation assay, cytotoxicity assay and tumor drug sensitivity test.
(§2) In in vitro experiments, the compound stock solution was prepared into 10 mM with DMSO and diluted with a culture medium before use. The 293T cell line was used for preliminary concentration screening of the compound, wherein concentration gradients were set as follows: 5 µmol, 10 µmol, 20 µmol, 40 µmol, 80 µmol and 160 µmol. After the cells were treated with the compound for 24 h, the CCK8 detection kit was used, wherein the cell viability was calculated based on the absorbance values detected by a microplate reader. Data processing was performed using GraphPad Prism software to plot the IC50 curve.

[2] = as above; assay type: cell-based; conditions: human, 293T cells, 293T, 24 h, CCK8, three replicate wells
From the text: as §1, §2

primary neurons = assay: Dendritic spine density of neurons in the in vitro AD model (APPsw lentivirus); assay type: cell-based, mouse
Procedure: The extraction and culture of primary neurons were the same as those hereinabove (toxicity experiment section). Transfection of neurons using plasmid calcium: A neuron culture medium (half medium change) was aspirated and placed in a 37°C water bath for later use, and Neurobasel A was added to a 24-well plate. 500 ng of plasmid DNA was dissolved in 12.5 µl of CaCl2 solution, and then centrifuged. 12.5 µl of HBS was added to the EP tube, and then centrifuged. The mixed solution hereinabove was added to the 24-well plate. The 24-well plate was gently shaken, and then placed back into a 37°C incubator to stand for 90 min. […] On day 6 of in vitro culture (DIV6), the original medium was semi-quantitatively collected, and the lentivirus stock solution (100 µl) was diluted with the original medium (10 ml) at a ratio of […]. […] Primary neurons were transfected with calcium-transformed GFP plasmids on day 4 of in vitro culture to enable the neurons to carry green fluorescence for observing neuronal dendrites. […] After 14 days of in vitro culture, the neurons were fixed with 4% PFA, photographed under a 100× oil immersion lens of a confocal fluorescence microscope, and the dendritic spine density per 10 µm length of the neurons was calculated by observing GFP green fluorescence.

Structure (SMILES): CCOC(=O)c1[nH]c(C)c(CCC(=O)N2CCCC(C(=O)NCCN3CCCCCC3)C2)c1C (stereo not drawn) [compound of Formula I, ETHYL4-[3-(3-{[2-(AZEPAN-1-YL)ETHYL]CARBAMOYL}PIPERIDIN-1-YL)-3-OXOPROPYL]-3, 5-DIMETHYL-1H-PYRROLE-2-CARBOXYLATE]
- concentration at 0.25 h ([1]; Balb/c, mouse, serum, ip, 2.5 mg/kg, IP 2.5 mg/kg, 0.25 hr, individual animals, read-out: Concentration (blood)): 369 ng/mL
- concentration at 0.25 h ([1]; Balb/c, mouse, serum, ip, 2.5 mg/kg, IP 2.5 mg/kg, 0.25 hr, mean of 3 animals, read-out: Concentration (blood) Mean): 423 ng/mL
- concentration at 0.5 h ([1]; Balb/c, mouse, serum, ip, 2.5 mg/kg, IP 2.5 mg/kg, 0.5 hr, individual animals, read-out: Concentration (blood)): 364 ng/mL
- concentration at 0.5 h ([1]; Balb/c, mouse, serum, ip, 2.5 mg/kg, IP 2.5 mg/kg, 0.5 hr, mean of 3 animals, read-out: Concentration (blood) Mean): 374 ng/mL
- concentration at 1 h ([1]; Balb/c, mouse, serum, ip, 2.5 mg/kg, IP 2.5 mg/kg, 1 hr, mean of 3 animals): 145 ng/mL
- concentration at 2 h ([1]; Balb/c, mouse, serum, ip, 2.5 mg/kg, IP 2.5 mg/kg, 2 hr, mean of 3 animals): 36.1 ng/mL
- concentration at 4 h ([1]; Balb/c, mouse, serum, ip, 2.5 mg/kg, IP 2.5 mg/kg, 4 hr, mean of 3 animals): 5.14 ng/mL
- Concentration (blood) ([1]; IP 2.5 mg/kg, 0.25 hr, individual animals, 2.5 mg/kg): 350 ng/mL and 551 ng/mL
- Concentration (blood) ([1]; IP 2.5 mg/kg, 0.5 hr, individual animals, 2.5 mg/kg): 328 ng/mL and 431 ng/mL
- Concentration (blood) ([1]; IP 2.5 mg/kg, 1 hr, individual animals, 2.5 mg/kg): 118 ng/mL and 217 ng/mL and 99.3 ng/mL
- Concentration (blood) ([1]; IP 2.5 mg/kg, 2 hr, individual animals, 2.5 mg/kg): 22.7 ng/mL and 63.7 ng/mL and 22.0 ng/mL
- Concentration (blood) ([1]; IP 2.5 mg/kg, 4 hr, individual animals, 2.5 mg/kg): 3.63 ng/mL and 8.64 ng/mL and 3.15 ng/mL
- Concentration (blood) ([1]; IP 2.5 mg/kg, 6 hr, individual animals): BLOQ (BLOQ = Below LOQ, LOQ = 2.0 ng/mL)
- Concentration (blood) Mean ([1]; IP 2.5 mg/kg, 6 hr, mean of 3 animals): BLOQ (BLOQ = Below LOQ, LOQ = 2.0 ng/mL)
- Concentration (blood) ([1]; IP 2.5 mg/kg, 8 hr, individual animals): BLOQ (BLOQ = Below LOQ, LOQ = 2.0 ng/mL)
- Concentration (blood) Mean ([1]; IP 2.5 mg/kg, 8 hr, mean of 3 animals): BLOQ (BLOQ = Below LOQ, LOQ = 2.0 ng/mL)
- Concentration (blood) ([1]; IP 2.5 mg/kg, 24 hr, individual animals): BLOQ (BLOQ = Below LOQ, LOQ = 2.0 ng/mL)
- Concentration (blood) Mean ([1]; IP 2.5 mg/kg, 24 hr, mean of 3 animals): BLOQ (BLOQ = Below LOQ, LOQ = 2.0 ng/mL)
- blood concentration of the compound ([1]; single IP injection 2.5 mg/kg, after 6 h): undetectable
- cell viability (293T cell line; 5 µmol): 106.6% and 109.2%
- cell viability (293T cell line; 10 µmol): 109.8% and 96.54%
- cell viability (293T cell line; 20 µmol): 95.56% and 93.46%
- cell viability (293T cell line; 40 µmol): 86.71% and 78.81%
- cell viability (293T cell line; 80 µmol): 24% and 23.36%
- cell viability (293T cell line; 160 µmol): 32.01% and 28.26%
- viability at 24 h, 5 µmol ([2]; 5 µmol): 96.6%
- viability at 24 h, 10 µmol ([2]; 10 µmol): 109%
- viability at 24 h, 20 µmol ([2]; 20 µmol): 93.1%
- viability at 24 h, 40 µmol ([2]; 40 µmol): 86.7%
- viability at 24 h, 80 µmol ([2]; 80 µmol): 22.7%
- viability at 24 h, 160 µmol ([2]; 160 µmol): 27.2%
- number of dendritic spines of neurons (normalized to the control group) (primary neurons; APP SW+intervention, compound 2.5 µmol for 24 h, individual neurons): 0.7841 and 0.7357 and 0.6856 and 0.8651 and 0.6806 and 0.6909 and 0.6481 and 0.7086
- dendritic spine density (primary neurons; in vitro AD model (APPsw virus), after compound intervention, group comparison): increased
